# In patent US8916573B2, “Quinazoline-2,4-dione derivatives” (Actelion Pharmaceuticals Ltd., priority 2011, dated 2014):
# System: S. aureus 29213
# Assay: Bacterial growth minimal inhibitory concentrations (microdilution, cation-adjusted Mueller-Hinton Broth, CLSI M7-A7)
# Type: cell-based
# Details: Staphylococcus aureus, 29213; microdilution in cation-adjusted Mueller-Hinton Broth
# Experimental: Bacterial Growth Minimal Inhibitory Concentrations: Minimal inhibitory concentrations (MICs; mg/l) were determined in cation-adjusted MuellerHinton Broth by a microdilution method following the description given in “Methods for Dilution Antimicrobial Susceptibility Tests for Bacteria that Grow Aerobically”, Approved standard, 7th ed., Clinical and Laboratory Standards Institute (CLSI) Document M7-A7, Wayne, Pa., USA, 2006. Typical antibacterial test results are given in Table 1 hereafter (MIC in mg/l).
row,SMILES,MIC [µg/mL]
1,"O=C1CSc2ccc(N3C[C@@H](CCCn4c(=O)[nH]c5cc(Cl)ccc5c4=O)OC3=O)cc2N1 [Example 27, 7-chloro-3-{3-[(R)-2-oxo-3-(3-oxo-3,4-dihydro-2H-benzo[1,4]-thiazin-6-yl)-oxazolidin-5-yl]-propyl}-1H-quinazoline-2,4-dione]",0.063
2,"O=C1CSc2ccc(N3C[C@@H](CCCn4c(=O)[nH]c5cccc(F)c5c4=O)OC3=O)cc2N1 [Example 17, 5-fluoro-3-{3-[(R)-2-oxo-3-(3-oxo-3,4-dihydro-2H-benzo[1,4]thiazin-6-yl)-oxazolidin-5-yl]-propyl}-1H-quinazoline-2,4-dione]",0.125
3,"Cc1cccc2c(=O)n(CCC[C@@H]3CN(c4ccc5c(n4)NC(=O)CO5)C(=O)O3)c(=O)[nH]c12 [Example 15, 8-methyl-3-{3-[(R)-2-oxo-3-(3-oxo-3,4-dihydro-2H-pyrido[3,2-b][1,4]oxazin-6-yl)-oxazolidin-5-yl]-propyl}-1H-quinazoline-2,4-dione]",0.063
4,"COc1ccc2c(=O)n(CCC[C@H]3CN(c4ccc5c(c4)NC(=O)CS5)C(=O)O3)c(=O)[nH]c2c1 [Example 35, 7-methoxy-3-{3-[(S)-2-oxo-3-(3-oxo-3,4-dihydro-2H-benzo[1,4]-thiazin-6-yl)-oxazolidin-5-yl]-propyl}-1H-quinazoline-2,4-dione]",0.125
5,"O=C1CSc2ccc(N3C[C@H](CCCn4c(=O)[nH]c5cccc(Cl)c5c4=O)OC3=O)cc2N1 [Example 18, 5-chloro-3-{3-[(S)-2-oxo-3-(3-oxo-3,4-dihydro-2H-benzo[1,4]thiazin-6-yl)-oxazolidin-5-yl]-propyl}-1H-quinazoline-2,4-dione]",≤ 0.016
6,"Cn1c(=O)n(C[C@H](O)CC[C@@H]2CN(c3ccc4c(c3)NC(=O)CO4)C(=O)O2)c(=O)c2ccccc21 (racemic) [Example 49, 3-{(RS)-2-hydroxy-4-[(RS)-2-oxo-3-(3-oxo-3,4-dihydro-2H-benzo[1,4]oxazin-6-yl)-oxazolidin-5-yl]-butyl}-1-methyl-1H-quinazoline-2,4-dione]",1
7,"O=C1CSc2ccc(N3C[C@@H](CCCn4c(=O)[nH]c5c(F)cccc5c4=O)OC3=O)cc2N1 [Example 32, 8-fluoro-3-{3-[(R)-2-oxo-3-(3-oxo-3,4-dihydro-2H-benzo[1,4]thiazin-6-yl)-oxazolidin-5-yl]-propyl}-1H-quinazoline-2,4-dione]",0.031
8,"O=C1COc2ccc(N3C[C@@H](CCCn4c(=O)[nH]c5cccc(Cl)c5c4=O)OC3=O)nc2N1 [Example 20, 5-chloro-3-{3-[(R)-2-oxo-3-(3-oxo-3,4-dihydro-2H-pyrido[3,2-b][1,4]oxazin-6-yl)-oxazolidin-5-yl]-propyl}-1H-quinazoline-2,4-dione]",0.125
9,"Cc1cccc2[nH]c(=O)n(CCC[C@H]3CN(c4ccc5c(c4)NC(=O)CS5)C(=O)O3)c(=O)c12 [Example 7, 5-methyl-3-{3-[(S)-2-oxo-3-(3-oxo-3,4-dihydro-2H-benzo[1,4]-thiazin-6-yl)-oxazolidin-5-yl]-propyl}-1H-quinazoline-2,4-dione]",≤ 0.016
10,"Cc1cccc2c(=O)n(CCC[C@H]3CN(c4ccc5c(c4)NC(=O)CS5)C(=O)O3)c(=O)[nH]c12 [Example 13, 8-methyl-3-{3-[(S)-2-oxo-3-(3-oxo-3,4-dihydro-2H-benzo[1,4]thiazin-6-yl)-oxazolidin-5-yl]-propyl}-1H-quinazoline-2,4-dione]",≤ 0.016
11,"Cc1ccc2c(=O)n(CCC[C@@H]3CN(c4ccc5c(c4)NC(=O)CS5)C(=O)O3)c(=O)[nH]c2c1 [Example 11, 7-methyl-3-{3-[(R)-2-oxo-3-(3-oxo-3,4-dihydro-2H-benzo[1,4]-thiazin-6-yl)-oxazolidin-5-yl]-propyl}-1H-quinazoline-2,4-dione]",0.063
12,"O=C1COc2ccc(N3C[C@H](CCCn4c(=O)c5cccc6c5n(c4=O)CCC6)OC3=O)nc2N1 [Example 45, 2-{3-[(S)-2-oxo-3-(3-oxo-3,4-dihydro-2H-pyrido[3,2-b][1,4]oxazin-6-yl)-oxazolidin-5-yl]-propyl}-6,7-dihydro-5H-pyrido[3,2,1-ij]quinazoline-1,3-dione]",≤ 0.016
13,"O=C1CSc2ccc(N3C[C@H](CCCn4c(=O)[nH]c5ccc(N6CCCC6)cc5c4=O)OC3=O)cc2N1 [Example 37, 3-{3-[(S)-2-oxo-3-(3-oxo-3,4-dihydro-2H-benzo[1,4]-thiazin-6-yl)-oxazolidin-5-yl]-propyl}-6-pyrrolidin-1-yl-1H-quinazoline-2,4-dione]",0.5
14,"O=C1CSc2ccc(N3C[C@@H](CCCn4c(=O)[nH]c5cc(F)ccc5c4=O)OC3=O)cc2N1 [Example 28, 7-fluoro-3-{3-[(R)-2-oxo-3-(3-oxo-3,4-dihydro-2H-benzo[1,4]thiazin-6-yl)-oxazolidin-5-yl]-propyl}-1H-quinazoline-2,4-dione]",0.063
15,"O=C1CSc2ccc(N3C[C@@H](CCCn4c(=O)[nH]c5cccc(Cl)c5c4=O)OC3=O)cc2N1 [Example 16, 5-chloro-3-{3-[(R)-2-oxo-3-(3-oxo-3,4-dihydro-2H-benzo[1,4]thiazin-6-yl)-oxazolidin-5-yl]-propyl}-1H-quinazoline-2,4-dione]",0.031

# Now from value to molecule:
row,MIC [µg/mL],SMILES
1,≤ 0.016,"Cn1c(=O)n(CCC[C@@H]2CN(c3ccc4c(c3)NC(=O)CS4)C(=O)O2)c(=O)c2ccc(Br)cc21 [Example 46, 7-bromo-1-methyl-3-{3-[(R)-2-oxo-3-(3-oxo-3,4-dihydro-2H-benzo[1,4]thiazin-6-yl)-oxazolidin-5-yl]-propyl}-1H-quinazoline-2,4-dione]"
2,0.031,"COC(=O)/C=C/c1ccc2c(=O)n(CCNCCC3CN(c4ccc5c(c4)NC(=O)CS5)C(=O)O3)c(=O)n(C)c2c1 (racemic) [Example 63, rac-(E)-3-[1-methyl-2,4-dioxo-3-(2-{2-[2-oxo-3-(3-oxo-3,4-dihydro-2H-benzo[1,4]thiazin-6-yl)-oxazolidin-5-yl]-ethylamino}-ethyl)-1,2,3,4-tetrahydro-quinazolin-7-yl]-acrylic acid methyl ester]"
3,≤ 0.016,"Cc1cccc2c1c(=O)n(CCNC[C@H]1CN(c3ccc4c(n3)NC(=O)CS4)C(=O)O1)c(=O)n2C [Example 58, 1,5-dimethyl-3-(2-{[(S)-2-oxo-3-(3-oxo-3,4-dihydro-2H-pyrido[3,2-b][1,4]thiazin-6-yl)-oxazolidin-5-ylmethyl]-amino}-ethyl)-1H-quinazoline-2,4-dione]"
4,≤ 0.016,"Cn1c(=O)n(CCNC[C@@H]2CN(c3ccc4c(c3)NC(=O)CS4)C(=O)O2)c(=O)c2cccc(Cl)c21 [Example 61, 8-chloro-1-methyl-3-(2-{[(R)-2-oxo-3-(3-oxo-3,4-dihydro-2H-benzo[1,4]thiazin-6-yl)-oxazolidin-5-ylmethyl]-amino}-ethyl)-1H-quinazoline-2,4-dione]"
5,≤ 0.016,"O=C1CSc2ccc(N3C[C@H](CCCn4c(=O)[nH]c5c(Cl)cccc5c4=O)OC3=O)nc2N1 [Example 22, 8-chloro-3-{3-[(S)-2-oxo-3-(3-oxo-3,4-dihydro-2H-pyrido[3,2-b][1,4]thiazin-6-yl)-oxazolidin-5-yl]-propyl}-1H-quinazoline-2,4-dione]"
6,≤ 0.016,"O=C1CSc2ccc(N3C[C@H](CCCn4c(=O)[nH]c5cccc(Cl)c5c4=O)OC3=O)nc2N1 [Example 19, 5-chloro-3-{3-[(S)-2-oxo-3-(3-oxo-3,4-dihydro-2H-pyrido[3,2-b][1,4]thiazin-6-yl)-oxazolidin-5-yl]-propyl}-1H-quinazoline-2,4-dione]"
7,≤ 0.016,"Cc1cccc2c(=O)n(CCC[C@H]3CN(c4ccc5c(n4)NC(=O)CS5)C(=O)O3)c(=O)[nH]c12 [Example 14, 8-methyl-3-{3-[(S)-2-oxo-3-(3-oxo-3,4-dihydro-2H-pyrido[3,2-b][1,4]thiazin-6-yl)-oxazolidin-5-yl]-propyl}-1H-quinazoline-2,4-dione]"
8,0.25,"O=C1CSc2ccc(N3C[C@@H](CNCCn4c(=O)[nH]c5c(Cl)cccc5c4=O)OC3=O)cc2N1 [Example 64, 8-chloro-3-(2-{[(R)-2-oxo-3-(3-oxo-3,4-dihydro-2H-benzo[1,4]thiazin-6-yl)-oxazolidin-5-ylmethyl]-amino}-ethyl)-1H-quinazoline-2,4-dione]"
9,≤ 0.016,"Cn1c(=O)n(CCC[C@H]2CN(c3ccc4c(c3)NC(=O)CS4)C(=O)O2)c(=O)c2cccc(Cl)c21 [Example 31, 8-chloro-1-methyl-3-{3-[(S)-2-oxo-3-(3-oxo-3,4-dihydro-2H-benzo[1,4]thiazin-6-yl)-oxazolidin-5-yl]-propyl}-1H-quinazoline-2,4-dione]"
10,0.031,"Cn1c(=O)n(CCNC[C@@H]2CN(c3ccc4c(n3)NC(=O)CS4)C(=O)O2)c(=O)c2ccccc21.O=CO [Example 55, 1-methyl-3-(2-{[(R)-2-oxo-3-(3-oxo-3,4-dihydro-2H-pyrido[3,2-b][1,4]thiazin-6-yl)-oxazolidin-5-ylmethyl]-amino}-ethyl)-1H-quinazoline-2,4-dione formate salt]"
11,0.125,"Cn1c(=O)n(CCNC[C@@H]2CN(c3ccc4c(c3)NC(=O)CS4)C(=O)O2)c(=O)c2ccccc21 [Example 56, 1-methyl-3-(2-{[(R)-2-oxo-3-(3-oxo-3,4-dihydro-2H-benzo[1,4]thiazin-6-yl)-oxazolidin-5-ylmethyl]-amino}-ethyl)-1H-quinazoline-2,4-dione]"
12,≤ 0.25,"CCCn1c(=O)n(CCC[C@@H]2CN(c3ccc4c(c3)NC(=O)CS4)C(=O)O2)c(=O)c2ccccc21 [Example 4, 3-{3-[(R)-2-oxo-3-(3-oxo-3,4-dihydro-2H-benzo[1,4]-thiazin-6-yl)-oxazolidin-5-yl]-propyl}-1-propyl-1H-quinazoline-2,4-dione]"

# Same assay, conditions: microdilution in cation-adjusted Mueller-Hinton Broth
row,MIC for S. aureus 29213 [µg/mL],SMILES
1,0.031,"O=C1CSc2ccc(N3C[C@@H](CNCCn4c(=O)c5cccc6c5n(c4=O)CCC6)OC3=O)cc2N1 [Example 66, 2-(2-{[(R)-2-oxo-3-(3-oxo-3,4-dihydro-2H-benzo[1,4]thiazin-6-yl)-oxazolidin-5-ylmethyl]-amino}-ethyl)-6,7-dihydro-5H-pyrido[3,2,1-#]quinazoline-1,3-dione]"
